Reference: patent publication US11149052B2, “2′3′-cyclic dinucleotides” (Institute of Organic Chemistry and Biochemistry, ASCR, V.V.I, priority 2018, dated 2021)

Columns and labels:
[1] = target: T1, WT STING (truncated human WT STING protein) (Homo sapiens, UniProt Q86WV6, H232R); test: Differential Scanning Fluorimetry with WT STING; format: binding; details: thermal shift vs apoprotein; 150 μM CDN; 0.1 mg/ml STING protein; SYPRO Orange; read-out: DSF ΔTm (° C.) WT STING
T1 construct: truncated human WT STING or AQ STING (amino acid residues 140-343); 8xHis (N, cleaved yes); SUMO (N, cleaved yes); made in house; host or cells: E. coli Rosetta-gami B (DE3)
Experimental: (§1) Purified PCR products were cleaved with restriction enzymes BamHI (cat. #R0136S, NEB, Ipswich, USA) and NotI (cat. #R0189S, NEB, Ipswich, USA) and cloned into the pSUMO vector linearized with the identical enzymes.
(§2) DNase I (cat. #D5025, Sigma Aldrich, Czech Republic) and RNase A (cat. #R6513, Sigma Aldrich, Czech Republic) were added (final concentration […]) together with MgCl2 (final concentration 5 mmol·l^−1) to the homogenate and bacteria were lysed using French Press G-M™ High-Pressure Cell Press Homogenizer (1500 psi, 3 cycles). […] The resin was poured into a chromatography column, washed with 50 ml buffer A (50 mmol·l^−1 TrisCl (pH 8.0), 800 mmol·l^−1 NaCl, 3 mmol·l^−1β-mercaptoethanol; 10% glycerol; 20 mmol·l^−1 imidazole) and 8-His-SUMO tagged STING proteins were eluted with 15 ml buffer A containing 300 mmol·l^−1 imidazole. […] Proteins were concentrated with Amicon® Ultra-15 10 K device (cat. #UFC901008, Merck Millipore, Billerica, USA) and flash frozen in liquid N2.
(§3) Differential Scanning Fluorimetry with WT STING and AQ STING
(§4) 20 μL solutions of the reaction mixtures were pipetted in triplicates into 96 well optical reaction plates and thermal denaturation of samples were performed on real time PCR cycler (LightCycler® 480 Instrument II—Roche, Base^1, Switzerland). The first derivative of the thermal denaturation curves was performed to calculate denaturing temperatures of STING-CDN complexes and STING apoproteins. The thermal shift for each CDN was calculated by subtracting the average denaturing temperature of STING apoprotein from the average denaturing temperature of STING CDN complex.

[2] = target: human wild type STING (WT STING) (Homo sapiens, UniProt Q86WV6, H232R); test: Digitonin assay using 293T wtSTING-FL reporter cells (ISRE firefly luciferase reporter); format: cell-based; details: 293T wtSTING-FL cells; 30 min in Digitonin buffer, then 5 hours; luciferase read-out; 8-point dose-response curve; read-out: Digitonin assay EC50 (μmol · l^−1) WT STING
Text: Two complementary oligonucleotides of the sequence […] […] […] […] […] The oligonucleotides were mixed in equal molar amounts, hybridized, and cleaved by restriction endonucleases HindIII (cat. #. R0104S, NEB, Ipswich, USA) and BglII (cat. #R0144S, NEB, Ipswich, USA). Ultimately, they were ligated into plasmid pGL4.27 (cat. #E6651, Promega, Madison, USA) linearized with the same enzymes. As result the sequence with four ISRE sites was placed upstream of the minimum promoter of firefly luciferase reporter gene.
After 5 minutes incubation at room temperature (RT), 250 μL of the mixture was added dropwise to the cells in one well.
Transfected cells were seeded onto poly-D-lysine coated six well plates at density 50,000 cells per 1 cm^2 in DMEM medium with high glucose containing 10% heat inactivated FBS, 30 μg/mL blasticidin (cat. #ant-bl-05, InvivoGen, San Diego, USA), 0.06 mg/ml Penicillin G and 0.1 mg/ml Streptomycin Sulfate (both cat. #. L0018, Biowest, Riverside, USA). The medium was replenished every 3-4 days until visible colonies of cells resistant to blasticidin were formed.
Blasticidin resistant cells stably expressing WT STING were further transfected with […] plasmid following the same procedure as described above. […] Homogeneous culture of stably double transfected cells was prepared by limiting dilution of cells in 96 well plates and wells with cells were selected that originated from a single cell.
The medium was removed next day and three fold serial dilutions of compounds in Digitonin buffer containing 50 mmol·l^−1 HEPES (cat. #H3375, Sigma Aldrich, Czech Republic) pH 7.0, 100 mmol·l^−1 KCl, 3 mmol·l^−1 MgCl2, 0.1 mmol·l^−1 DTT (cat. #D0632, Sigma Aldrich, Czech Republic), 85 mmol·l^−1 Sucrose (cat. #S7903, Sigma Aldrich, Czech Republic), 0.2% BSA (cat. #A2153, Sigma Aldrich, Czech Republic), 1 mmol·l^−1 ATP (cat. #A1852, Sigma Aldrich, Czech Republic), 0.1 mmol·l^−1 GTP (cat. #G8877, Sigma Aldrich, Czech Republic), and 10 μg/mL Digitonin A (cat. #D141, Sigma Aldrich, Czech Republic) were added to the cells. The buffer was removed after 30 minutes incubation at 37° C. with 5% CO2, the cells were washed once with 100 μl of cultivation medium, and 100 IA of medium was added to each well. The plates with cells were incubated for 5 hours at 37° C. with 5% CO2, 50 μl of the medium was removed and 30 μl of ONE-Glo™ Luciferase Assay System reagent (cat. #E6120, Promega, Madison, USA) was added to each well. Luminesce was read on Synergy H1 (Biotek, Winooski, USA).

[3] = target: T2, AQ STING (truncated human STING G230A-R293Q allelic form) (Homo sapiens, UniProt Q86WV6, G230A/H232R/R293Q); test: Differential Scanning Fluorimetry with AQ STING; format: binding; details: thermal shift vs apoprotein; 150 μM CDN; 0.1 mg/ml STING protein; SYPRO Orange; read-out: DSF ΔTm (° C.) AQ STING
T2 construct: truncated human WT STING or AQ STING (amino acid residues 140-343); 8xHis (N, cleaved yes); SUMO (N, cleaved yes); made in house; host or cells: E. coli Rosetta-gami B (DE3)
Experimental: as §1, §2, §3, §4

T1 sequence (Q86WV6 140-343 H232R): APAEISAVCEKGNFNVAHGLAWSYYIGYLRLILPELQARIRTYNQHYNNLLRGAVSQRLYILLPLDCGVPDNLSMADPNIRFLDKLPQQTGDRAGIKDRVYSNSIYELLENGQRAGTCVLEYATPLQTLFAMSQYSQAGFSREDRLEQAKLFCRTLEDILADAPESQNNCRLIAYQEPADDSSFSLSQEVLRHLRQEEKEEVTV
human wild type STING (WT STING), sequence (Q86WV6 whole entry H232R): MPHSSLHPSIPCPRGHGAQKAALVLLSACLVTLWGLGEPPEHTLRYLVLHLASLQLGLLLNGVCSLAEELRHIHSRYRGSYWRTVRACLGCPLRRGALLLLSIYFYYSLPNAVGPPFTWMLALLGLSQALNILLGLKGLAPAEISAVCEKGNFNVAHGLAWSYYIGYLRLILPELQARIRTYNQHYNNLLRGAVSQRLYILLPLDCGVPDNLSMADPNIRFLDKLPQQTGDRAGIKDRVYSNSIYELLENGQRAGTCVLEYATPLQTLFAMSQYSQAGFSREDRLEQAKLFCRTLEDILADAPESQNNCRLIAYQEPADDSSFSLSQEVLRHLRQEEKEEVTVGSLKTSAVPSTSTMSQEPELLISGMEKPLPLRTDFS
T2 sequence (Q86WV6 140-343 G230A/H232R/R293Q): as the sequence (Q86WV6 140-343 H232R) above, with G91A, R154Q counted along it

| ΔTm at 150 µM [1] [°C] | EC50 [2] [nM] | ΔTm at 150 µM [3] [°C] | Structure (SMILES) |
| --- | --- | --- | --- |
| 16.7 | 14 | 23.2 | Nc1nc2c(ncn2[C@@H]2O[C@@H]3COP(=O)(O)CO[C@H]4[C@@H](O)[C@H](n5cnc6c(N)ncnc65)O[C@@H]4COP(=O)(O)O[C@@H]2[C@@H]3O)c(=O)[nH]1 [Example 5, (1R,6R,8R,9R,10S,16R,18R,19R)-18-(2-amino-6-oxo-6,9-dihydro-1H-purin-9-yl)-8-(6-amino-9H-purin-9-yl)-3,9,13,19-tetrahydroxy-2,4,7,11,14,17-hexaoxa-3λ^5,13λ^5-diphosphatricyclo[14.2.1.0^6,^10]nonadecane-3,13-dione] |
| 3 | 400 | 9.4 | Nc1ncnc2c1ncn2[C@@H]1O[C@@H]2COP(=O)(O)O[C@@H]3[C@H](O)[C@@H](COP(=O)(O)CO[C@H]2[C@H]1O)O[C@H]3n1cnc2c(N)ncnc21 [Example 8, (1R,6R,8R,9R,10S,16R,18R,19R)-8,18-bis(6-amino-9H-purin-9-yl)-3,9,13,19-tetrahydroxy-2,4,7,11,14,17-hexaoxa-3λ^5,13λ^5-diphosphatricyclo[14.2.1.0^6,^10]nonadecane-3,13-dione] |
| 1.4 | 1200 | 8.8 | Nc1nc2c(ncn2[C@@H]2O[C@@H]3COP(=O)(O)O[C@@H]4[C@H](O)[C@@H](COP(=O)(O)CO[C@H]3[C@H]2O)O[C@H]4n2cnc3c(N)ncnc32)c(=O)[nH]1 [Example 2, (1R,6R,8R,9R,10S,16R,18R,19R)-8-(2-amino-6-oxo-6,9-dihydro-1H-purin-9-yl)-18-(6-amino-9H-purin-9-yl)-3,9,13,19-tetrahydroxy-2,4,7,11,14,17-hexaoxa-3λ^5,13λ^5-diphosphatricyclo[14.2.1.0^6,^10]nonadecane-3,13-dione] |
| 20.4 | 20 | 25.7 | Nc1ncnc2c1ncn2[C@@H]1O[C@@H]2COP(=O)(O)O[C@@H]3[C@H](F)[C@@H](COP(=O)(O)CO[C@H]2[C@H]1F)O[C@H]3n1cnc2c(=O)[nH]cnc21 [Example 24] |
| 0 | > 50000 | 0 | Nc1ncnc2c1ncn2[C@@H]1O[C@@H]2COP(=O)(O)CO[C@@H]3[C@@H](O)[C@@H](COP(=O)(O)CO[C@@H]2[C@H]1O)O[C@H]3n1cnc2c(N)ncnc21 [Example 12, (1R,7R,9R,10R,11R,17R,19R,20S)-9,19-bis(6-amino-9H-purin-9-yl)-4,10,14,20-tetrahydroxy-2,5,8,12,15,18-hexaoxa-4λ^5,14λ^5-diphosphatricyclo[15.2.1.0^7,^11]icosane-4,14-dione] |
| 9 | 15 | 11.1 | Nc1ncnc2c1ncn2[C@@H]1O[C@@H]2COP(=O)(O)O[C@@H]3[C@H](F)[C@@H](COP(=O)(O)CO[C@H]2[C@H]1F)O[C@H]3n1cnc2c(N)ncnc21 [Example 22, (1S,6R,8R,9R,10R,16R,18R,19R)-8,18-bis(6-amino-9H-purin-9-yl)-9,19-difluoro-3,13-dihydroxy-2,4,7,11,14,17-hexaoxa-3λ^5,13λ^5-diphosphatricyclo[14.2.1.0^6,^10]nonadecane-3,13-dione] |
| 0.1 | > 50000 | 1.2 | Nc1nc2c(ncn2[C@@H]2O[C@@H]3COP(=O)(O)CO[C@@H]4[C@H](O)[C@@H](COP(=O)(O)O[C@H]3[C@H]2O)O[C@H]4n2cnc3c(N)ncnc32)c(=O)[nH]1 [Example 6, (1R,6S,7R,8R,10R,16R,17R,19R)-8-(2-amino-6-oxo-6,9-dihydro-1H-purin-9-yl)-17-(6-amino-9H-purin-9-yl)-4,7,13,19-tetrahydroxy-3,5,9,12,15,18-hexaoxa-4λ^5,13λ^5-diphosphatricyclo[14.2.1.0^6,^10]nonadecane-4,13-dione] |
| 0.8 | 3000 | 7.2 | Nc1nc2c(ncn2[C@@H]2O[C@@H]3COP(=O)(O)O[C@H]4[C@@H](O)[C@H](n5cnc6c(N)ncnc65)O[C@@H]4COP(=O)(O)CO[C@@H]2[C@@H]3O)c(=O)[nH]1 [Example 3, (1R,6S,7R,8R,10R,16R,17R,19R)-17-(2-amino-6-oxo-6,9-dihydro-1H-purin-9-yl)-8-(6-amino-9H-purin-9-yl)-4,7,13,19-tetrahydroxy-3,5,9,12,15,18-hexaoxa-4λ^5,13λ^5-diphosphatricyclo[14.2.1.0^6,^10]nonadecane-4,13-dione] |
| 19 | 20 | 23.9 | Nc1nc2c(ncn2[C@@H]2O[C@@H]3COP(=O)(O)CO[C@H]4[C@@H](F)[C@H](n5cnc6c(N)ncnc65)O[C@@H]4COP(=O)(O)O[C@@H]2C3)c(=O)[nH]1 [Example 18, (1R,6R,8R,9R,10R,16S,18R)-18-(2-amino-6-oxo-6,9-dihydro-1H-purin-9-yl)-8-(6-amino-9H-purin-9-yl)-9-fluoro-3,13-dihydroxy-2,4,7,11,14,17-hexaoxa-3λ^5,13λ^5-diphosphatricyclo[14.2.1.0^6,^10]nonadecane-3,13-dione] |
| 0.2 | 5900 | 3.4 | Nc1ncnc2c1ncn2[C@@H]1O[C@@H]2COP(=O)(O)CO[C@@H]3[C@H](O)[C@@H](COP(=O)(O)O[C@H]2[C@H]1O)O[C@H]3n1cnc2c(N)ncnc21 [Example 23, (1R,6S,7R,8R,10R,16R,17R,19R)-8,17-bis(6-amino-9H-purin-9-yl)-4,7,13,19-tetrahydroxy-3,5,9,12,15,18-hexaoxa-4λ^5,13λ^5-diphosphatricyclo[14.2.1.0^6,^10]nonadecane-4,13-dione] |
| 10.6 | 53 | 17.5 | Nc1nc(N)c2ncn([C@@H]3O[C@@H]4COP(=O)(O)CO[C@H]5[C@@H](O)[C@H](n6cnc7c(N)ncnc76)O[C@@H]5COP(=O)(O)O[C@@H]3[C@@H]4F)c2n1 [Example 25, (1S,6R,8R,9R,10S,16R,18R,19R)-8-(6-amino-9H-purin-9-yl)-18-(2,6-diamino-9H-purin-9-yl)-19-fluoro-3,9,13-trihydroxy-2,4,7,11,14,17-hexaoxa-3λ^5,13λ^5-diphosphatricyclo[14.2.1.0^6,^10]nonadecane-3,13-dione] |
